In this data set the test system is MDA-MB-231 tumors. The experiment in a line: EC17 dose finding safety study, tumor-bearing mice. The data set is classed as in vivo, NSG mice. To be noted: for higher IFNγ production in mouse plasma vs CAR-T cells only: all EC17 regimens. As for the experimental part: All animal care and use were performed according to NIH guidelines and in compliance with protocols approved by the Purdue University Animal Use and Care Committee. Female 4 to 5-weeks-old NOD/SCID gamma (NSG™) mice (stock number: 005557) were purchased from The Jackson Laboratory (Bar Harbor, ME). Unless specifically indicated, all animals were maintained on a FA-deficient diet (TestDiet, St. Louis, MO) upon arrival and throughout the study. To establish subcutaneous xenografts, MDA-MB-231 and HOS-FRα were implanted in the right flank region at 2.5 × 10^6 and 1 × 10^6 cells per animal, respectively. For intravenous xenografts, THP1-FRβ cells were inoculated at 5 × 10^6 cells per animal. Subcutaneous tumors were measured 2–3 times per week with a caliper and calculated using the ellipsoidal formula (length x width^2)/2. […] All animal doses (CAR-T cells, EC17, sodium fluorescein) were given intravenously.
In a therapeutic setting, EC17 CAM can theoretically be given before or after CAR-T cell injection ([33]). For all intended purposes here, we administered the first dose of EC17 2–3.5 days after CAR-T cells to allow for an observation period of human T cells in tumor-bearing mice. Two batches of unsorted E2-CAR-T cells (23% or 39% EGFRt+, 1:1 CD4/CD8) were used for in vivo studies. On the day of infusion for each experiment (day 0), frozen CAR-T cells were quickly thawed at 37°C, washed 2x with Dulbecco's 1X PBS (pH 7.4) and injected into the tail veil at desired EGFRt+ E2-CAR-T cell doses. In addition, a small aliquot of CAR-T cells was analyzed by flow cytometry for CD4 to CD8 ratio and differentiation status of CAR-T cells. On the first day of EC17 dose, tumor-bearing animals were randomly assigned into groups according to their tumor sizes or the same number of days post intravenous implantation (i.e., THP1-FRβ).
For MDA-MB-231 studies, mice received a high dose (~10 million) of a “clinical facsimile” of E2-CAR-T cells (~39% EGFRt+) with a low differentiation profile. Two days later, we started them with 3 different treatment regimens of EC17 at an average tumor size of ~293 ± 39 mm^3. The EC17 dosing was given once-a-week (SIW) at 500 nmol/kg on Mondays, or as escalating doses of 5, 50, or 100, and 500 or 1,000 nmol/kg on Monday, Thursday, and Monday with a 6 day break in-between cycles. Control mice were left untreated (received CAR-T cells but no EC17). For comparison, a cohort of tumor-free littermates also received the same number of CAR-T cells without or with EC17 SIW at 500 nmol/kg. To study the effect of high dietary folate, two sets of NSG mice were placed on either a FA-replete diet (4 mg/kg, Envigo, Indianapolis, IN) or a FA-deficient diet (TestDiet, St. Louis, MO) upon arrival. On day 0, both sets of the mice received ~10 million of the same “clinical facsimile” CAR-T cells followed by no EC17 or EC17 SIW at 500 nmol/kg starting on day 3. On the first day of EC17 administration, MDA-MB-231 tumors size averaged around ~549 ± 184 mm^3 (280–918 mm^3) in FA-replete mice, and ~559 ± 165 mm^3 (356–961 mm^3) in FA-deficient mice.
Depending on the CAR-T cell dose and how EC17 is administered, tumor-bearing mice receiving FITC-specific CAR-T cells can experience severe CRS and varying degrees of body weight loss ([27], [33], [34]). […] On the days immediately following each EC17 dose, animals were scored and rescue agents such as sodium fluorescein, folic acid and leucovorin were used to mitigate CRS toxicity ([33]). […]

Consider `Nc1nc2ncc(CNc3ccc(C(=O)NC(CCC(=O)NCCNC(=S)Nc4ccc(-c5c6ccc(=O)cc-6oc6cc(O)ccc56)c(C(=O)O)c4)C(=O)O)cc3)nc2c(=O)[nH]1` (centres unmarked) [EC17, FA-(γ)-ethylenediamine-FITC], for which the cures (EC17-treated cohorts (SIW 500, 5/50/500, 5/100/1000 nmol/kg), ~10 million E2-CAR-T cells) came out at 100%. The “higher IFNγ production in mouse plasma vs CAR-T cells only” value reads like this: (day 11, ~20 h after previous EC17 dose, ~10 million E2-CAR-T cells) ~ 30 x; (day 12, ~42 h after previous EC17 dose, ~10 million E2-CAR-T cells) ~ 10 x. Moreover, the “persistence of CAR-T cells in mouse blood” value (tumor-bearing animals, ~10 million E2-CAR-T cells plus EC17, last measurement) is reported as “up to 54 days”. Also, the CRS grade (tumor-bearing, ~10 million E2-CAR-T cells, continued EC17 dosing independent of the regimen, 0–5 scale) is recorded as 2-3.

For the origin of these results see publication PMC6433934, “Preclinical Evaluation of Bispecific Adaptor Molecule Controlled Folate Receptor CAR-T Cell Therapy With Special Focus on Pediatric Malignancies” (Frontiers in Oncology, 2019).
